# Experimental data published in ChEMBL document CHEMBL5576149, “Discovery of Potent STT3A/B Inhibitors and Assessment of Their Multipathogen Antiviral Potential and Safety” (J Med Chem, 2024).
# The source made the active and inactive calls. The rule behind the calls is not given here.
# Assays:
# [1] = Neurotoxicity in human iPSC cells co-cultured with human astrocyte assessed as inhibition of cell growth at 300 nM incubated for 48 hr by multi-electrode array analysis relative to control; type: toxicity, cell-based; conditions: ipsc, 48 h, 0.3 µM
# [2] = Inhibition of STT3A/STT3B mediated N-linked glycosylation in human H1-HeLa cells stably transduced with ERluc by measuring effective concentration of inhibition incubated for 18 hrs by One-Glo luciferase reporter assay; type: cell-based
# [3] = Chromatographic hydrophobicity index, logD of the compound at pH 7.4; type: physicochemical; conditions: buffer
# [4] = Unbound clearance in human liver microsomes at 0.5 uM incubated upto 45 mins; type: ADME, Microsome; conditions: 0.75 h
# Mus musculus [5] = assay: In vivo inhibition of STT3A/STT3B in C57BL/6 mouse assessed as upregulation of DERL3 expression in lung at 0.1 to 10 mg/kg,po measured after 6 hrs by RT-qPCR analysis; type: functional, organism-based; conditions: dose 0.1-10 mg/kg
# [6] = MRT in CD1 mouse at 2 mg/kg,po or 1 mg/kg,iv administrated upto 60 mins by LC-MS/MS analysis; type: ADME, organism-based; conditions: in vivo
# Mus musculus [7] = assay: In vivo inhibition of STT3A/STT3B in C57BL/6 mouse assessed as upregulation of MANF expression in blood at 0.1 to 10 mg/kg,po measured after 6 hrs by RT-qPCR analysis; type: functional, organism-based; conditions: dose 0.1-10 mg/kg
# [8] = Cytotoxicity against human Hepatocyte cultured as 3D spheroids incubated for 14 days by CellTiter-Glo luminescence assay; type: toxicity, cell-based; conditions: hepatocytes cultured as 3D spheroids
# Mus musculus [9] = assay: In vivo inhibition of STT3A/STT3B in C57BL/6 mouse assessed as upregulation of MANF expression in lung at 0.1 to 10 mg/kg,po measured after 6 hrs by RT-qPCR analysis; type: functional, organism-based; conditions: dose 0.1-10 mg/kg
# [10] = Bioavailability in CD1 mouse at 2 mg/kg,po or 1 mg/kg,iv administrated upto 60 mins by LC-MS/MS analysis; type: ADME, organism-based; conditions: in vivo
# Mus musculus [11] = assay: In vivo inhibition of STT3A/STT3B in C57BL/6 mouse assessed as upregulation of […] expression in blood at 0.1 to 10 mg/kg,po measured after 6 hrs by RT-qPCR analysis; type: functional, organism-based; conditions: dose 0.1-10 mg/kg
# [12] = Inhibition of STT3A/STT3B mediated N-linked glycosylation in STT3A knockout human H1-HeLa cells stably transduced with Halo3N-ER sequence by measuring effective concentration incubated for 24 hrs by Western blotting analysis; type: cell-based
# Mus musculus [13] = assay: In vivo inhibition of STT3A/STT3B in C57BL/6 mouse assessed as upregulation of SDF2L1 expression in blood at 0.1 to 10 mg/kg,po measured after 6 hrs by RT-qPCR analysis; type: functional, organism-based; conditions: dose 0.1-10 mg/kg
# Mus musculus [14] = assay: In vivo inhibition of STT3A/STT3B in C57BL/6 mouse assessed as upregulation of […] expression in lung at 0.1 to 10 mg/kg,po measured after 6 hrs by RT-qPCR analysis; type: functional, organism-based; conditions: dose 0.1-10 mg/kg
# [15] = Solubility of compound in FaSSIF; type: ADME
# [16] = Unbound clearance in CD1 mouse at 2 mg/kg,po or 1 mg/kg,iv administrated upto 60 mins by LC-MS/MS analysis; type: ADME, organism-based; conditions: in vivo, 1 h
# [17] = Unbound clearance in mouse liver microsomes at 0.5 uM incubated upto 45 mins; type: ADME, Microsome; conditions: 0.75 h
# Mus musculus [18] = assay: In vivo inhibition of STT3A/STT3B in C57BL/6 mouse assessed as upregulation of DERL3 expression in blood at 0.1 to 10 mg/kg,po measured after 6 hrs by RT-qPCR analysis; type: functional, organism-based; conditions: dose 0.1-10 mg/kg
# [19] = Inhibition of STT3A/STT3B mediated N-linked glycosylation in STT3B knockout human H1-HeLa cells stably transduced with Halo3N-ER sequence by measuring effective concentration incubated for 24 hrs by Western blotting analysis; type: cell-based
# [20] = Volume of distribution at steady state in CD1 mouse at 2 mg/kg,po or 1 mg/kg,iv administrated upto 60 mins by LC-MS/MS analysis; type: ADME, organism-based; conditions: in vivo, 1 h
# Mus musculus [21] = assay: In vivo inhibition of STT3A/STT3B in C57BL/6 mouse assessed as upregulation of SDF2L1 expression in lung at 0.1 to 10 mg/kg,po measured after 6 hrs by RT-qPCR analysis; type: functional, organism-based; conditions: dose 0.1-10 mg/kg
# [22] = Cytotoxicity against human MRC5 cells by luminescence-based cell viability assay; type: toxicity
# Human coronavirus 229E = assay: Antiviral activity against Human coronavirus 229E infected in human MRC5 cells assessed as reduction in viral growth incubated for 68 hrs by CellTiter-Glo luminescence assay; type: functional, organism-based; conditions: MRC5, 68 h
# A549 [23] = assay: Cytotoxicity against human A549 cells; type: functional
# SARS-CoV-2 = assay: Antiviral activity against SARS-CoV-2 infected in human A549 cells assessed as reduction in viral growth incubated for 24 hrs by Nano-Glo reagent based analysis; type: functional, organism-based; conditions: Severe acute respiratory syndrome coronavirus 2, A549, 24 h
# Influenza A virus [24] = assay: Antiviral activity against influenza A virus H1N1 A/Puerto Rico/8/1934 infected in MDCK cells assessed as reduction in viral replication measured after 3 hrs of post-infection by RT-qPCR analysis relative to control; type: functional; set-up: scale not given: the % may be the effect or the level left
# Influenza A virus [25] = assay: Antiviral activity against influenza A virus H1N1 A/Puerto Rico/8/1934 infected in MDCK cells assessed as reduction in viral replication measured after 30 hrs of post-infection by RT-qPCR analysis relative to control; type: functional; set-up: scale not given: the % may be the effect or the level left
# A549 [26] = assay: Cytotoxicity against human A549 cells by fluorescent cell imaging assay; type: functional
# Human respirovirus 3 = assay: Antiviral activity against Human parainfluenza virus 3 JS infected in human A549 cells assessed as reduction in viral proliferation incubated for 44 hrs by Hoechst dye based fluorescence analysis; type: functional, organism-based; conditions: Human respirovirus 3, JS, A549, 44 h
# [27] = Unbound clearance in rat liver microsomes at 0.5 uM incubated upto 45 mins; type: ADME, Microsome; conditions: 0.75 h
smiles,measurement,setting,value
CCCC(C)C1(CC)C(=O)NC(=O)NC1=O (stereo unspecified) [PENTOBARBITAL],Activity,[1],Non-Toxic
CN(C)S(=O)(=O)c1ccc(N2CCCC2)c(-c2cc3ccncc3[nH]2)c1,EC50,[2],394 nM
C[S@](=N)(=O)c1ccc(N2CC[C@H](O)C2)c(-c2cc3ccccc3[nH]2)c1,EC50,[2],279 nM
same,chromatographic logD,[3],2.7
same,CL free,[4],< 12 mL/min/kg
C[S@@](=N)(=O)c1ccc(N2CC[C@H](O)C2)c(-c2cc3ccccc3[nH]2)c1,EC50,[2],15 nM
same,inhibition,Mus musculus [5],Active
same,MRT,[6],3 h
same,inhibition,Mus musculus [7],Active
same,IC50 at 14 days,[8],< 1200 nM
same,chromatographic logD,[3],2.7
same,inhibition,Mus musculus [9],Active
same,bioavailability,[10],62%
same,CL free,[4],< 12 mL/min/kg
same,inhibition,Mus musculus [11],Active
same,EC50,[12],28 nM
same,inhibition,Mus musculus [13],Active
same,inhibition,Mus musculus [14],Active
same,solubility,[15],767 µg/mL
same,CL free,[16],38 mL/min/kg
same,CL free,[17],30 mL/min/kg
same,inhibition,Mus musculus [18],Active
same,EC50,[19],10 nM
same,Vdss,[20],2 L/kg
same,inhibition,Mus musculus [21],Active
Cc1ccc2cc(-c3cc(S(=O)(=O)N(C)CC(=O)N4CCOCC4)ccc3N3CCCC3)[nH]c2c1,EC50,[2],2 nM
same,CC50,[22],44 nM
same,EC50,Human coronavirus 229E,2 nM
same,CC50,A549 [23],13 nM
same,EC50,SARS-CoV-2,4 nM
same,Activity,Influenza A virus [24],>90%
same,Activity,Influenza A virus [25],60%
same,CC50,A549 [26],35 nM
same,EC50,Human respirovirus 3,6 nM
O=C([C@H]1CCN1S(=O)(=O)c1ccc(N2CCC(F)(F)C2)c(-c2cc3ccccc3[nH]2)c1)N1CCOCC1,EC50,[2],615 nM
same,IC50 at 14 days,[8],2500 nM
same,chromatographic logD,[3],5.3
same,CL free,[27],3480 mL/min/kg
CN(C)S(=O)(=O)c1ccc(N2CCCC2)c(C(=O)Nc2ccc(F)cc2)c1,EC50,[2],1390 nM
CN(C)S(=O)(=O)c1ccc(N2CCCC2)c(C(=O)Nc2ccccc2)c1,EC50,[2],5010 nM
CN(C)S(=O)(=O)c1ccc(N2CC[C@@H](O)C2)c(-c2cc3ccccc3[nH]2)c1,EC50,[2],513 nM
same,IC50 at 14 days,[8],6300 nM
same,chromatographic logD,[3],4.8
same,CL free,[27],1795 mL/min/kg
same,CL free,[4],160 mL/min/kg
CN(C)S(=O)(=O)c1ccc(N2CCCC2)c(-c2cc3cc(F)ccc3[nH]2)c1,EC50,[2],172 nM
CN(C)S(=O)(=O)c1cnc(N2CCCC2)c(-c2cc3ccccc3[nH]2)c1,EC50,[2],779 nM
CN(C)S(=O)(=O)c1ccc(N2CCC(F)(F)C2)c(-c2cc3ccccc3[nH]2)c1,EC50,[2],107 nM
same,chromatographic logD,[3],6.6
same,CL free,[27],27713 mL/min/kg
same,CL free,[4],526 mL/min/kg
